Target: T1, FvUGT1 (Fragaria vesca, UniProt A0A1S5NSV4)
T1 construct: gene UGT1; full-length ORF in pET-32 (KpnI/BamHI), N- and C-terminal His-tags kept, fusion 72 kD, E. coli BL21(DE3) pLysS, Ni-NTA; oligomer state unknown
T1 sequence (A0A1S5NSV4 1-465): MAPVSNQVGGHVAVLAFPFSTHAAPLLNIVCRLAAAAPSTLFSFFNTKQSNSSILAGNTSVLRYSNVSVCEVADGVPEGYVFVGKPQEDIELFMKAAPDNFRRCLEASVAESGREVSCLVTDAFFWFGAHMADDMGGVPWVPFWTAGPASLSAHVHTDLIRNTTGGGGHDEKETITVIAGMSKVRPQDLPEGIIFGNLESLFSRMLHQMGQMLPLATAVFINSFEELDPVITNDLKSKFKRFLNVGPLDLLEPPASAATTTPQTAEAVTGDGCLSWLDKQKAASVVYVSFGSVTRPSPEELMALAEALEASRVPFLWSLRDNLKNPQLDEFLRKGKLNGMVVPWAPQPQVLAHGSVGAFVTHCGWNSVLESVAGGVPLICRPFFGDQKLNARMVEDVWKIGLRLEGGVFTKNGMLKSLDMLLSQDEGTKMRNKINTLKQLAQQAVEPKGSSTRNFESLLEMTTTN
Test: phosphatase-coupled malachite green glycosyltransferase assay; partial uncompetitive substrate inhibition fit (modified Hill, x = […])
Type: biochemical
Details: second site, no calmodulin, 5 mM UDP-Glc, 0–1,400 μM pelargonidin chloride, 10 mM CaCl2, pH 7.5, 37 °C

Oc1ccc(-c2[o+]c3cc(O)cc(O)c3cc2O)cc1 [pelargonidin]
K i: 331.5 ± 13.3 µM

— PMC5017016, “Calcium/calmodulin alleviates substrate inhibition in a strawberry UDP-glucosyltransferase involved in fruit anthocyanin biosynthesis” (BMC Plant Biology, 2016)
